# Experimental data from ChEMBL document CHEMBL1131118, “Inhibition of monoamine oxidase-B by condensed pyridazines and pyrimidines: effects of lipophilicity and structure-activity relationships” (J Med Chem, 1998).
# What was measured:
# [1] = molecular target: T1, Amine oxidase [flavin-containing] A (Rattus norvegicus, UniProt P21396); experiment: Inhibitory activity against Monoamine oxidase A from rat brain mitochondria at 50 uM
# T1 sequence (P21396 whole entry): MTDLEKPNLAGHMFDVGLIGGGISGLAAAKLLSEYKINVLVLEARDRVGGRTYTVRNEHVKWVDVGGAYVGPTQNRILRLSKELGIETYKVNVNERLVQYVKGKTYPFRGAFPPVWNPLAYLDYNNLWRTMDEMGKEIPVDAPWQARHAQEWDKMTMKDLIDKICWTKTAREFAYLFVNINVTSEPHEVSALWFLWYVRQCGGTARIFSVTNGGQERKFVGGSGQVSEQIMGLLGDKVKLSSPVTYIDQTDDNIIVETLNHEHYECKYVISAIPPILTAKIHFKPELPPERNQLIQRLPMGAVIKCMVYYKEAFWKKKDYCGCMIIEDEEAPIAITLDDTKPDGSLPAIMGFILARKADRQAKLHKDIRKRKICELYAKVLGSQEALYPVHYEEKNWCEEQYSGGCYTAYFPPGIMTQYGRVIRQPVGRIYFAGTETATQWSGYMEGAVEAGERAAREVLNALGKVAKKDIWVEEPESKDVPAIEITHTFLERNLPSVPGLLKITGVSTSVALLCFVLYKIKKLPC
# [2] = molecular target: T2, Amine oxidase [flavin-containing] B (Rattus norvegicus, UniProt P19643); experiment: Inhibitory activity against Monoamine oxidase B from rat brain mitochondria at 50 uM
# T2 sequence (P19643 whole entry): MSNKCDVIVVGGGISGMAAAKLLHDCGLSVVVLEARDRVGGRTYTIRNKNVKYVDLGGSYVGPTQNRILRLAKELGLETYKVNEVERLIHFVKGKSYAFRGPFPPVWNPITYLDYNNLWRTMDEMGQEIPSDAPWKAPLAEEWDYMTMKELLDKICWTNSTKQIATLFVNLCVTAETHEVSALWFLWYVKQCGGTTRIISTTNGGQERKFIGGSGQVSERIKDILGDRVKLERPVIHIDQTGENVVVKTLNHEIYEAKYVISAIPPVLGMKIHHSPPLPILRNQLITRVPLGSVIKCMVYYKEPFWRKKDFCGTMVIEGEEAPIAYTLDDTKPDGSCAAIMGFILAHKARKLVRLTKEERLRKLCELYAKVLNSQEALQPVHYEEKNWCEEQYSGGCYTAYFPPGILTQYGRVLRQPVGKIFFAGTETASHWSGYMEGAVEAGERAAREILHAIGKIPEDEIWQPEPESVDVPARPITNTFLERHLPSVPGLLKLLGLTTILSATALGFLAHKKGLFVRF
# [3] = Partition coefficient (logP) (cyclohexane); conditions: octanol/water
# [4] = molecular target: T2, Amine oxidase [flavin-containing] B; experiment: Inhibitory activity against Monoamine oxidase B from rat brain mitochondria
# [5] = Partition coefficient (logP); conditions: octanol/water
# [6] = molecular target: T1, Amine oxidase [flavin-containing] A; experiment: Inhibitory activity against Monoamine oxidase A from rat brain mitochondria at 100 uM
# [7] = molecular target: T2, Amine oxidase [flavin-containing] B; experiment: Inhibitory activity against Monoamine oxidase B from rat brain mitochondria at 100 uM
# [8] = molecular target: T2, Amine oxidase [flavin-containing] B; experiment: Inhibitory activity against Monoamine oxidase B from rat brain mitochondria at 5 uM
# [9] = molecular target: T1, Amine oxidase [flavin-containing] A; experiment: Inhibitory activity against Monoamine oxidase A from rat brain mitochondria at 5 uM
# [10] = molecular target: T2, Amine oxidase [flavin-containing] B
# Description: Inhibitory activity against Monoamine oxidase B from rat brain mitochondria at 125 uM
# [11] = molecular target: T1, Amine oxidase [flavin-containing] A; experiment: Inhibitory activity against Monoamine oxidase A from rat brain mitochondria
# [12] = molecular target: T2, Amine oxidase [flavin-containing] B; experiment: Inhibitory activity against Monoamine oxidase B from rat brain mitochondria at 10 uM
# [13] = molecular target: T2, Amine oxidase [flavin-containing] B; experiment: Inhibitory activity against Monoamine oxidase B
# [14] = molecular target: T1, Amine oxidase [flavin-containing] A
# Description: Inhibitory activity against Monoamine oxidase A from rat brain mitochondria at 25 uM
logP [3],logP [5],Compound,further results
–,–,c1ccc(-c2cc3c(nn2)CCC3)cc1,inhibition at 50 µM [1]: 44%; inhibition at 50 µM [2]: 12%
1.66,> 3,O=C1c2ccccc2-c2nnc(-c3cccc([N+](=O)[O-])c3)cc21,IC50 [4]: 0.631 µM
2.16,> 3,Cc1c(-c2ccccc2)nnc2c1C(=O)c1ccccc1-2,–
1.05,2.64,O=C1c2ccccc2-c2nnc(-c3ccccc3[N+](=O)[O-])cc21,–
-0.29,1.22,O=C1c2ccccc2-c2nnccc21,–
2.34,> 3,O=C1c2ccccc2-c2nnc(-c3ccc([N+](=O)[O-])cc3)cc21,–
2.51,> 3,COc1ccc(-c2cc3c(nn2)-c2ccccc2C3=O)cc1,–
2.83,> 3,COc1cccc(-c2cc3c(nn2)-c2ccccc2C3=O)c1,–
2.26,> 3,COc1ccccc1-c1cc2c(nn1)-c1ccccc1C2=O,–
-0.45,1.09,O=C(c1ccccc1)c1ccnnc1,inhibition at 100 µM [6]: 18%; inhibition at 100 µM [7]: 29%
–,–,c1ccc(-c2cc3[nH]c4ccccc4c3nn2)cc1,inhibition at 5 µM [8]: 0%; inhibition at 5 µM [9]: 0%
-2.22,1.56,O=c1[nH]c(=O)c2cc(-c3ccccc3)nnc2[nH]1,inhibition at 125 µM [10]: 32%; IC50 [11]: 16.4 µM
0.13,2.88,O=C1c2ccccc2-c2nnc(-c3ccc(O)cc3)cc21,–
2.55,3.15,O=C1c2ccccc2-c2nnc(-c3ccccc3O)cc21,–
1.4,2.8,O=C1c2ccccc2-c2nncc(-c3ccccc3)c21,–
2.07,> 3,O=C1c2ccccc2-c2nnc(-c3ccccc3F)cc21,–
–,–,O=C1c2ccccc2-c2cnc(-c3ccccc3)nc21,IC50 [4]: 11.6 µM; IC50 [11]: 2.37 µM
0.7,2.21,O=C1c2ccccc2-c2nnc(C(F)(F)F)cc21,–
3.15,> 3,O=C1c2ccccc2-c2nc(-c3ccccc3)ncc21,IC50 [4]: 11.5 µM; inhibition at 10 µM [12]: 28%; IC50 [11]: 8.39 µM
–,–,O=c1[nH]c(=O)c2cc(-c3ccc(C(F)(F)F)cc3)nnc2[nH]1,inhibition at 5 µM [8]: 12.5%; inhibition at 5 µM [9]: 15%
2.56,> 3,O=C1c2ccccc2-c2nnc(-c3ccc(F)cc3)cc21,–
0.6,2.05,O=C1CCCc2nnc(-c3ccccc3)cc21,IC50 [4]: 74.8 µM; IC50 [11]: 59.1 µM; IC50 [13]: 74.1 µM
-0.04,1.58,Cc1cc2c(nn1)-c1ccccc1C2=O,–
2.34,> 3,O=C1c2ccccc2-c2nnc(-c3ccccc3)cc21,inhibition at 25 µM [14]: 0%
